Experiments:
MBP-NS1-NTD = assay: Fluorescence-based thermal shift assay (Sypro Orange), control protein; format: binding; settings: 0 or 80 μM SE-1, 1 μM protein
Description: Binding of SE-1 to purified VirF was tested by comparing the VirF melting temperature (Tm) in the absence and presence of SE-1 using a thermal shift assay with the fluorescent dye Sypro Orange (Molecular Probes). This method is also known as differential scanning fluorimetry or DSF. As a control, we tested binding of SE-1 to the purified, unrelated, MBP-NS1-NTD protein (greater than 95% pure). Reactions contained (final concentrations): 1 μM protein; 20×Sypro Orange (a 250-fold dilution of the purchased 5,000× stock solution); 0.76×EMSA buffer (7.6 mM Tris-acetate, pH 7.4, 0.76 mM KEDTA, 38 mM KCl, and 0.76 mM DTT); 4% DMSO; and 0 or 80 μM SE-1. The reactions were carried out in 0.1 ml PCR low profile 8-tube strips with optically clear flat caps (USA Scientific) in a StepOnePlus™ Real-Time PCR System (Applied Biosystems), heating from 25 to 99° C. in increments of 0.8° C. The data was analyzed using the Boltzmann sigmoidal model in the software Prism (GraphPad). Data points before and after the fluorescence intensity minimum and maximum, respectively, were excluded from fitting. The ΔTm values are the average of three independent experiments with two replicates in each experiment. A single, representative, experiment is shown.

virB = assay: Shigella gene expression qRT-PCR, virB; format: cell-based, S. flexneri; settings: for Average ΔΔCt / Ct / RQ (2^−ΔΔCt) / ΔΔCt^1 (normalized to gapA) / ΔΔCt^2 (normalized to rrsA): virB, example data
Description: (§1) Real-time quantitative reverse transcription PCR (qRT-PCR) was performed to test the effects of SE-1 on the expression of the VirF regulated genes virB, icsA, icsB and ipaB. The gapA and rrsA transcripts were used as internal controls. These are constitutively expressed Shigella genes commonly used to normalize mRNA levels. S. flexneri strain SME4331, which carries a null mutation in ipgD (ipgD), was grown at 30° C. overnight in TSB with ampicillin, diluted into the same medium to an OD600 of ˜0.1, and 1 ml aliquots further grown at 30° C. (DMSO only) or at 37° C. (SE-1 at 20 or 40 μM, or DMSO only, all 0.3% DMSO). Cells were grown to an OD600 of 1.0 (˜2.5 h) and RNA was isolated using an RNeasy MiniElute Cleanup Kit (Qiagen, Germantown, Md.), with DNA contamination eliminated using a Turbo DNase Kit (Ambion, Austin, Tex.). Complementary DNA (cDNA) was synthesized by random priming using a cDNA Reverse Transcription Kit (Applied Biosystems, Foster City, Calif.). Primers were tested for PCR specificity using genomic DNA template to ensure a single amplicon of the expected size for each primer pair, and validated using 5-fold dilutions of cDNA (2000 to 0.0256 ng) to ensure a linear plot of cycle threshold (Ct) versus cDNA concentration. Validated primer sets were used to test mRNA profiles in reactions that contained 10 ng of cDNA, 10 μl of SYBR green master mix (Applied Biosystems), specific primers (0.5 μM each) and water to a final volume of 20 μl, using a Step One Plus Real-Time PCR System (Applied Biosystems). The data was analyzed using the 2^−ΔΔCt method, and also by Applied Biosystems real-time analysis software. […] In brief, ΔΔCt values [ΔΔCt=(Ct,Target−Ct,Internal Control)SE-1−(Ct,Target−Ct,Internal Control)no SE-1] were separately obtained for each sample relative to two internal controls, gapA and rrsA. The ΔΔCt values relative to the two internal controls for each sample were averaged and then used to calculate the relative expression levels (2^−ΔΔCt). As a control, we also normalized each internal control to the other internal control. Control reactions used templates generated without reverse transcriptase to ensure low genomic DNA contamination. To ensure that products were not likely to be due to primer dimer artifacts, additional control samples were performed in which reaction mixtures contained primers alone (no template).

RhaS = RhaS (Escherichia coli, UniProt P09377); assay: % Inhibition at 82.5 μM, RhaS; format: cell-based, E. coli
Sequence of RhaS (P09377 whole entry): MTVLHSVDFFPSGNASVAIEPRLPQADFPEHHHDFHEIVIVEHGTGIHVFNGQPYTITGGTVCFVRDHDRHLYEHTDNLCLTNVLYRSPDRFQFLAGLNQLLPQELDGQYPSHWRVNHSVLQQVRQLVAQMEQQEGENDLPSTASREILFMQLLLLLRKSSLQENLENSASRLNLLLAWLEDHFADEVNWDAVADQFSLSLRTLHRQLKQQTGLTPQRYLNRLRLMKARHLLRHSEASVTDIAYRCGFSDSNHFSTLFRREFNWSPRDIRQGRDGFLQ

rrsA = assay: Shigella gene expression qRT-PCR, internal control rrsA; format: cell-based, S. flexneri; settings: for Average ΔΔCt / Ct / RQ (2^−ΔΔCt) / ΔΔCt^1 (normalized to gapA): rrsA, example data
Description: as §1

Shigella = Shigella growth; format: cell-based, S. flexneri
ipaB = assay: Shigella gene expression qRT-PCR, ipaB; format: cell-based, S. flexneri; settings: for Average ΔΔCt / Ct / RQ (2^−ΔΔCt) / ΔΔCt^1 (normalized to gapA) / ΔΔCt^2 (normalized to rrsA): ipaB, example data
Description: as §1

Rns = Rns (Escherichia coli, UniProt P16114); assay: % Inhibition at 82.5 μM, Rns; format: cell-based, Enterotoxigenic E. coli; settings: 82.5 μM
Sequence of Rns (P16114 whole entry): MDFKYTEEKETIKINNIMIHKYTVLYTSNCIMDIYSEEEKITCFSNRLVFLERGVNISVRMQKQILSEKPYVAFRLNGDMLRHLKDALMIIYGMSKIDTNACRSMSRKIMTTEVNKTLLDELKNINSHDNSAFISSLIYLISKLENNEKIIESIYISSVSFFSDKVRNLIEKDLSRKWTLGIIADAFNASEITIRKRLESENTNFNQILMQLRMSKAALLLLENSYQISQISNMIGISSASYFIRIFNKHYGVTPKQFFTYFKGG

MBP-Rns = target: T1, MBP-Rns (Escherichia coli, UniProt P16114); assay: EMSA in vitro DNA binding by MBP-Rns; format: biochemical, Enterotoxigenic E. coli
T1 construct: made in house
T1 sequence (P16114 whole entry): as above
From the text: FIGS. 9A-9B show inhibition of MBP-Rns and MBP-VirF by Compound 1. Quantification of EMSA of MBP-Rns (FIG. 9A) or example EMSA of MBP-VirF (FIG. 9B) DNA binding with the indicated inhibitor concentrations [micromolar]. F is Free DNA.
The compounds of the invention can be used for inhibition of virulence in vivo and in vitro activation by Rns and VirF.

SMILES: CCCCN1C=C(c2ccc3ccccc3n2)C(C[N+](=O)[O-])c2ccccc21 (centres unmarked) [Compound 1, 1-butyl-4-(nitromethyl)-3-quinolin-2-yl-4H-quinoline]
- change in melting temperature of MBP-NS1-NTD (MBP-NS1-NTD): 0.15 °C
- maximal inhibition of virB expression (virB; 40 μM SE-1, P<0.05): more than two fold
- Average ΔΔCt (virB; SE-1 20 μM): 1.13
- Ct (virB; SE-1 20 μM): 23.26
- RQ (2^−ΔΔCt) (virB; SE-1 20 μM): 0.46
- ΔΔCt^1 (normalized to gapA) (virB; SE-1 20 μM): 0.63
- ΔΔCt^2 (normalized to rrsA) (virB; SE-1 20 μM): 1.63
- Average ΔΔCt (virB; SE-1 40 μM): 1.47
- Ct (virB; SE-1 40 μM): 23.18
- RQ (2^−ΔΔCt) (virB; SE-1 40 μM): 0.36
- ΔΔCt^1 (normalized to gapA) (virB; SE-1 40 μM): 1.12
- ΔΔCt^2 (normalized to rrsA) (virB; SE-1 40 μM): 1.81
- % Inhibition at 82.5 μM RhaS (RhaS): 90%
- expression of control gene rrsA (rrsA; 40 μM SE-1, normalized to gapA): no decrease
- Average ΔΔCt (rrsA; SE-1 20 μM): −1.0
- Ct (rrsA; SE-1 20 μM): 18.55
- RQ (2^−ΔΔCt) (rrsA; SE-1 20 μM): 2
- ΔΔCt^1 (normalized to gapA) (rrsA; SE-1 20 μM): −1.0
- Average ΔΔCt (rrsA; SE-1 40 μM): 0.69
- Ct (rrsA; SE-1 40 μM): 18.29
- RQ (2^−ΔΔCt) (rrsA; SE-1 40 μM): 1.62
- ΔΔCt^1 (normalized to gapA) (rrsA; SE-1 40 μM): 0.69
- growth of S. flexneri samples (Shigella; 80 μM SE-1, virB-lacZ strain): exhibited growth defects
- decrease in the Shigella growth rate (Shigella; concentrations up to 40 μM, SME4331): no detectable decrease
- Shigella growth rate (Shigella; strain M90T, invasion study with human epithelial cells): not the Shigella growth rate
- reduction of ipaB expression (ipaB; 40 μM inhibitor, P<0.05): up to 4 fold
- Average ΔΔCt (ipaB; SE-1 20 μM): 1.11
- Ct (ipaB; SE-1 20 μM): 25.57
- RQ (2^−ΔΔCt) (ipaB; SE-1 20 μM): 0.46
- ΔΔCt^1 (normalized to gapA) (ipaB; SE-1 20 μM): 0.62
- ΔΔCt^2 (normalized to rrsA) (ipaB; SE-1 20 μM): 1.61
- Average ΔΔCt (ipaB; SE-1 40 μM): 2.20
- Ct (ipaB; SE-1 40 μM): 26.23
- RQ (2^−ΔΔCt) (ipaB; SE-1 40 μM): 0.22
- ΔΔCt^1 (normalized to gapA) (ipaB; SE-1 40 μM): 1.85
- ΔΔCt^2 (normalized to rrsA) (ipaB; SE-1 40 μM): 2.54
- % Inhibition at 82.5 μM Rns (Rns): 90%
- inhibition of in vitro DNA binding by purified Rns (MBP-Rns): similarly inhibits

— US20140088144A1, “INHIBITING MICROBIAL INFECTIONS” (THE UNIVERSITY OF KANSAS, priority 2012, published 2014)
